From article PMC9424909, “Rutin alleviated acrolein-induced cytotoxicity in Caco-2 and GES-1 cells by forming a cyclic hemiacetal product” (Frontiers in Nutrition, 2022) come the findings set out here.

Data set [1] in a line: elimination of ACR by rutin in PBS (DNPH derivatization, HPLC). Conditions: for amount of ACR reduced compared with the initial content / content of ACR (residual) / content of residual ACR: 2 h; for content of ACR (residual): rutin/ACR 1/1, initial content 200 μmol. As to the method:
In the present study, three variables were taken into consideration, namely temperature (40–100°C), reaction duration (0.5–8 h), and molar ratio of rutin to ACR (from 1/2 to 4/1), and the remaining level of ACR was determined. A mixture of rutin, ACR, and 20 mL of PBS was prepared in a 50 mL three-necked flask and reacted under light-proof conditions. The different variables were studied separately while keeping other conditions constant as follows: temperature of 80°C, reaction time of 2 h, and the molar ratio of rutin/ACR of 1/1. At the end of each reaction, ACR was derivatized with DNPH, and its content was determined as below.
The stock solution equivalent to ACR concentration of […] was prepared by dissolving 10.7 mg of ACR-DNPH standard with 25 mL of acetonitrile (ACN). And the ACR-DNPH standard curve (2 to 100 μg/mL) was established by serial dilutions of the stock solution. The HPLC conditions were as below. An Agilent 1,260 Infinity II HPLC system (Agilent Technologies, Palo Alto, CA) equipped with a DAD and a Zorbax SB-C18 column (250 × 4.6 mm; 5 μm; Agilent Technologies) was utilized for the determination of ACR-DNPH. The separation was conducted under isocratic conditions by introducing 50% A (water) and 50% B (ACN) at a flow rate of 1.0 mL/min for 15 min. The temperature was 35°C, the injection volume was 20 μL, and the detection wavelength was set at 365 nm. According to the retention time as well as the peak area, the standard curve of ACR-DNPH derivates was obtained.
DNPH was recrystallized as the followings before use: excess DNPH was added into 200 mL of methanol (MeOH) heating for 1 h, and the supernatant was collected and further heated at 60°C to remove 95% of the solvent; the crystals were then washed twice with 100 mL of MeOH, transferred to another clean beaker, and co-heated with 200 mL of MeOH; and the resulting crystal was stored under seal. The 0.1 M DNPH solution was prepared by dissolving 5.0548 g of the purified DNPH in 250 mL of ACN containing 5 mL of 10% phosphoric acid solution.
Derivatization of ACR with DNPH was conducted in accordance with Reilly et al. ([36]). In short, one milliliter of each sample was incubated with 1 mL of diluted DNPH solution (0.01 M) for 40 min at 40°C, followed by extraction with 10 mL of MeOH/water (75: 25, v/v). After centrifugation (6,000 rpm, 10 min), the supernatant was collected and was further extracted with 10 mL of dichloromethane to obtain the DNPH derivatives. Prior to HPLC analysis as above, the DNPH derivatives were re-dissolved in 1 mL of HPLC grade ACN and passed through a 0.45 μm filter (Bie & Berntsen, Rødovre, Denmark).

In data set [2] the test system is Caco-2 cells. The data set is described as follows: apoptosis assay, Annexin-V FITC/PI flow cytometry. Type of data set: cell-based, human. The conditions noted are these: for apoptotic cells / number of viable cells: 24 h. As to the method:
(§1) The Caco-2 cell line and GES-1 cell line were obtained from iCell Bioscience (Shanghai, China). As described by Chai et al. ([40]) with a bit modification, the Caco-2 cells were cultured within a medium composed of DMEM supplemented with 1% (v/v) NEAA, 10% (v/v) FBS, and penicillin and streptomycin (100 U/mL). GES-1 cells were cultivated according to Xu et al. ([41]) with slight modifications as follows: DMEM medium including 1% (v/v) NEAA, 10% (v/v) FBS, and penicillin and streptomycin (100 U/mL). Cells were all maintained in a humidified incubator containing 5% CO2 and 95% air at 37°C.
(§2) Cell apoptosis assay was conducted in refer to Abas et al. ([42]) with modifications. In short, cells at a density of 1 × 10^4 cells/well were seeded in 96-well plates and incubated overnight, followed by exposure to different concentrations of ACR and RAC for another 24 h. After that, cells were rinsed twice with PBS, resuspended in 200 μL of Annexin-binding buffer, and finally stained with Annexin-V FITC and PI (5 μL each) for 10 min at 37°C in darkness. After adding 400 μL of Annexin-binding buffer, the signal intensity was measured using a FACSCalibur (Becton Dickinson, CA, USA) flow cytometry within 1 h, and data was analyzed with FlowJo software (Ashland, OR, USA).
On the technique in general: Flow cytometry measures light scatter and fluorescence of single cells or particles in a stream.

The subject of data set [3] is GES-1 cells. Description: apoptosis assay, Annexin-V FITC/PI flow cytometry. Type of data set: cell-based, human. Conditions: 24 h. Here is the method:
as §1, §2

Data set [4] relates to Caco-2 cells. Description: JC-1 staining, mitochondrial membrane potential (MMP). In kind it is cell-based, human. Conditions: 24 h. As to the method:
as §1
(§3) After incubation with different concentrations of samples, the changes of MMP in Caco-2 and GES-1 cells were measured in accordance with Liu et al., with slight modifications ([43]). In brief, cells (1 × 10^4 cells/well) were exposed to different concentrations of ACR and RAC for 24 h, respectively. Then 500 μL of JC-1 staining solution was added into each well and the plate was further incubated at 37°C for 15 min. Cells were then rinsed twice with 1 mL of staining buffer and resuspended with 500 μL of staining buffer prior to MMP determination in the flow cytometry.

The test system of data set [5] is GES-1 cells. Described as above. Type of data set: cell-based, human. Conditions: 24 h. As to the method:
as §1, §3

The subject of data set [6] is Caco-2 cells. The data set is described as follows: cell survival, CCK-8 assay. Type of data set: cell-based, human. The conditions noted are these: for cell viability (viable cell number): incubation 24 h. Here is the method:
as §1
(§4) The effects of ACR and RAC on cell survival (both Caco-2 and GES-1 cells) were measured by the CCK-8 assay ([41]). Briefly, cells (1 × 10^4 cells/well) were seeded into a 96-well plate and cultivated overnight. […] After cells were rinsed twice with PBS and resuspended in 100 μL of DMEM supplemented with 10% FBS, 10 μL of CCK-8 solution was added into each well and the plate was maintained for 1 h in the incubator. The plate was read at 450 nm on a microplate reader (BioTek, Epoch 2, USA), and all experiments were performed thrice. Cell viability was expressed as a percentage of the control group as shown below:
(§5) Cell viability (%) = A sample/A control × 100%
(§6) Where A sample was the absorbance (Abs) of the cells incubated with different concentrations of sample solutions, and A control was the Abs of the cells incubated without sample solution.
(Tetrazolium dyes change colour on reduction, which living cells bring about.)

Data set [7] has as its system GES-1 cells. Description: cell survival, CCK-8 assay. In kind it is cell-based, human. The conditions noted are these: for cell viability (viable cell number): incubation 24 h. As to the method: as §1, §4, §5, §6

For the compound `C[C@@H]1O[C@@H](OC[C@H]2O[C@@H](Oc3c(-c4ccc(O)c(O)c4)oc4cc(O)cc(O)c4c3=O)[C@H](O)[C@@H](O)[C@@H]2O)[C@H](O)[C@H](O)[C@H]1O` [rutin, quercetin 3-O-rhamnosylglucoside], the “amount of ACR reduced compared with the initial content” value in data set [1] (40°C, rutin/ACR 1/1) is listed as 43.36%; in data set [1] (60°C, rutin/ACR 1/1) it was 82.05%; in data set [1] (80°C, rutin/ACR 1/1), 92.56%; in data set [1] (90°C, rutin/ACR 1/1) it was 96.09%; in data set [1] (100°C, rutin/ACR 1/1) it was 98.20%. The “content of ACR (residual)” value in data set [1] (40°C) was found to be 113.28 µmol; in data set [1] (60°C), 35.9 µmol; in data set [1] (80°C), 14.88 µmol; in data set [1] (90°C), 7.83 µmol; in data set [1] (100°C), 3.60 µmol. Besides, in data set [1] (after 8 h of reaction, 80°C, rutin/ACR 1/1), the ACR removed result is listed as “more than 94%”. The “content of residual ACR” value in data set [1] (molar ratio rutin/ACR 1/2, 80°C) stood at 18.54 µmol; in data set [1] (molar ratio rutin/ACR 4/1, 80°C), 6.69 µmol.
One may read the IC50 as the concentration at which inhibition is half-maximal. Turning to `C=CC=O` [ACR, Acrolein], the apoptotic cells is 12.19% with Caco-2 cells [2] (Caco-2, 20 μM); 28.59% in the data set on Caco-2 cells [2] (Caco-2, 40 μM); 59.50% with Caco-2 cells [2] (Caco-2, 60 μM). Besides, the “number of viable cells” value in the data set on Caco-2 cells [2] (Caco-2, 20 μM) was found to be 87.5%; in the data set on Caco-2 cells [2] (Caco-2, 40 μM), 71.3%; in the data set with Caco-2 cells [2] (Caco-2, 60 μM) it was 40.0%. The “apoptotic rate, times higher than that of the same concentration of RAC” value in the data set on Caco-2 cells [2] (Caco-2, 60 μM) is 5.5 times. In addition, the apoptotic rate in the data set on GES-1 cells [3] (GES-1, 20 μM) stood at 16.28%; in the data set with GES-1 cells [3] (GES-1, 60 μM), 68.10%. Besides, the “ratio of red/green fluorescence intensity” value in the data set on Caco-2 cells [4] (Caco-2, 20 μM) stood at 5.32; with Caco-2 cells [4] (Caco-2, 20 μM, listed as Acrolein), 5.32 ± 0.17; with Caco-2 cells [4] (Caco-2, 40 μM), 2.88 ± 0.09; in the data set with Caco-2 cells [4] (Caco-2, 60 μM), 1.97; in the data set with Caco-2 cells [4] (Caco-2, 60 μM, listed as Acrolein), 1.97 ± 0.06; in the data set with GES-1 cells [5] (GES-1, 20 μM) it was 5.68. Besides, the “ratio of red/green fluorescence intensity” value in the data set with GES-1 cells [5] (GES-1, 20 μM, listed as Acrolein) is reported as 5.68 ± 0.24; with GES-1 cells [5] (GES-1, 40 μM), 4.29 ± 0.17; in the data set on GES-1 cells [5] (GES-1, 60 μM), 2.13; in the data set with GES-1 cells [5] (GES-1, 60 μM, listed as Acrolein), 2.13 ± 0.10. Moreover, the “cell viability (viable cell number)” value turned out to be 31.83% with Caco-2 cells [6] (Caco-2, 20 μM); 6.97% with Caco-2 cells [6] (Caco-2, 140 μM); 49.57% in the data set on GES-1 cells [7] (GES-1, 20 μM); 11.22% with GES-1 cells [7] (GES-1, 140 μM). The IC50 in the data set on Caco-2 cells [6] (Caco-2, CCK-8, read-out: IC50 (cytotoxicity)) was less than 20 µM; with GES-1 cells [7] (GES-1, CCK-8, read-out: IC50 (cytotoxicity)) it was less than 20 µM. Further, in the data set on GES-1 cells [7] (GES-1, up to 140 μM, 24 h as printed), the “decrease of viable cell number” value was found to be 88.78%.
